For 1 substance, ring closure, yield after HPLC and ring closure, conversion results are on record in PMC7307906, “Macrocyclic Modalities Combining Peptide Epitopes and Natural Product Fragments” (Journal of the American Chemical Society, 2020).

For series [1] the following is noted: the molecule shown is the open-chain precursor, other bond, 37-membered ring, CH(OMe)3/Et3N, DMF, THF, resin, 25.0 °C, with chain assembly.
The conditions of series [2]: the molecule shown is the open-chain precursor, amine bond, 37-membered ring, then NaBH3CN, DMF, resin, 25.0 °C.

Like-named read-outs stand apart in the source and are kept apart here.

In the case of “H-Gly-MePhe-Ala-Leu-Phe-Pro-Gly-Phe-Lys(4-formylbenzoyl)-Gly-resin”, the ring closure, yield after HPLC worked out at 14% in series [1] (then 10/LiBr/Et3N) and 8% in series [1] (then 11/LiBr/Et3N). Besides, the ring closure, conversion in series [2] (1% AcOH) is 91%; in series [2] (5% AcOH), 99%; in series [2] (Et3N/4A MS), 4%.
